Reference: article PMC11352961, “Peptide dendrimers transfecting CRISPR/Cas9 plasmid DNA: optimization and mechanism” (RSC Chemical Biology, 2024)
Bridge positions count the residues as written; N and C are the ends. Square brackets hold non-standard residues; d marks the D form. Side chains are listed from the residue outwards. Peptide text beside a SMILES is read from it. I, II: the chains in the order shown. * marks the point of attachment. Stearoyl = CCCCCCCCCCCCCCCCCC(=O)*; Palmitoyl = CCCCCCCCCCCCCCCC(=O)*

Assays:
HEK293 cells [1] = test: Cell viability by PrestoBlue assay after transfection, HEK cells; format: cell-based; conditions: 4 h
[2] = cited from earlier work
HEK293 cells [3] = format: cell-based; conditions: 1 h
HeLa cells = test: Cell viability by PrestoBlue assay after transfection, HeLa cells; format: cell-based; conditions: 4 h
in vitro = conditions: isolated enzyme proteinase k, pH 8

SMILES | % viability HEK cells (HEK293 cells [1]) | pKa of dendrimer N-termini [2] | transfection of HEK cells with protease inhibition (HEK293 cells [3]) | % viability HeLa cells (HeLa cells) | remaining at 1 h, 200 µM (in vitro) | remaining at 2 h, 200 µM (in vitro) | remaining at 3 h, 200 µM (in vitro) | remaining at 12 h, 200 µM (in vitro) | remaining at 24 h, 200 µM (in vitro)
CCCCCCCCCCCCCCCC(=O)NCCCC[C@@H](NC(=O)[C@@H](CCCCNC(=O)CCCCCCCCCCCCCCC)NC(=O)[C@@H](CCCCNC(=O)[C@@H](CC(C)C)NC(=O)[C@@H](CC(C)C)NC(=O)[C@@H](CCCCNC(=O)[C@@H](CC(C)C)NC(=O)[C@@H](CCCCN)NC(=O)[C@@H](CCCCNC(=O)[C@@H](CC(C)C)NC(=O)[C@H](N)CCCCN)NC(=O)[C@@H](CC(C)C)NC(=O)[C@H](N)CCCCN)NC(=O)[C@@H](CC(C)C)NC(=O)[C@@H](CCCCN)NC(=O)[C@@H](CCCCNC(=O)[C@@H](CC(C)C)NC(=O)[C@H](N)CCCCN)NC(=O)[C@@H](CC(C)C)NC(=O)[C@H](N)CCCCN)NC(=O)[C@@H](CC(C)C)NC(=O)[C@@H](CC(C)C)NC(=O)[C@@H](CCCCNC(=O)[C@@H](CC(C)C)NC(=O)[C@@H](CCCCN)NC(=O)[C@@H](CCCCNC(=O)[C@@H](CC(C)C)NC(=O)[C@H](N)CCCCN)NC(=O)[C@@H](CC(C)C)NC(=O)[C@H](N)CCCCN)NC(=O)[C@@H](CC(C)C)NC(=O)[C@@H](CCCCN)NC(=O)[C@@H](CCCCNC(=O)[C@@H](CC(C)C)NC(=O)[C@H](N)CCCCN)NC(=O)[C@@H](CC(C)C)NC(=O)[C@H](N)CCCCN)C(N)=O [DMH13, reference compound] (I: H-[dK][dL][dK]([dL-dK])[dK][dL][dK][dL][dL][dK][dK](Palmitoyl)[dK](Palmitoyl)-NH2 / II: H-[dK][dL][dK]([dL-dK])[dK][dL][dK][dL][dL] / III: H-[dK][dL][dK]([dL-dK])[dK][dL] / IV: H-[dK][dL][dK]([dL-dK])[dK][dL]; amide I:6-IV:C, I:9-II:C, II:6-III:C) | 96 ± 6% | ~6.5 | – | – | – | – | – | – | –
CCCCCCCCCCCCCCCCCC(=O)NCCCC[C@H](NC(=O)[C@H](CCCCNC(=O)[C@H](CC(C)C)NC(=O)[C@H](CCCCN)NC(=O)[C@H](CCCCNC(=O)[C@H](CC(C)C)NC(=O)[C@H](CCCCN)NC(=O)[C@H](CCCCNC(=O)[C@H](CC(C)C)NC(=O)[C@@H](N)CCCCN)NC(=O)[C@H](CC(C)C)NC(=O)[C@@H](N)CCCCN)NC(=O)[C@H](CC(C)C)NC(=O)[C@H](CCCCN)NC(=O)[C@H](CCCCNC(=O)[C@H](CC(C)C)NC(=O)[C@@H](N)CCCCN)NC(=O)[C@H](CC(C)C)NC(=O)[C@@H](N)CCCCN)NC(=O)[C@H](CC(C)C)NC(=O)[C@H](CCCCN)NC(=O)[C@H](CCCCNC(=O)[C@H](CC(C)C)NC(=O)[C@H](CCCCN)NC(=O)[C@H](CCCCNC(=O)[C@H](CC(C)C)NC(=O)[C@@H](N)CCCCN)NC(=O)[C@H](CC(C)C)NC(=O)[C@@H](N)CCCCN)NC(=O)[C@H](CC(C)C)NC(=O)[C@H](CCCCN)NC(=O)[C@H](CCCCNC(=O)[C@H](CC(C)C)NC(=O)[C@@H](N)CCCCN)NC(=O)[C@H](CC(C)C)NC(=O)[C@@H](N)CCCCN)C(N)=O [Z1] (I: H-KLK([Leu-Lys])KLKKLKK(Stearoyl)-NH2 / II: H-KLK([Leu-Lys])KLKKL / III: H-KLK([Leu-Lys])KL / IV: H-KLK([Leu-Lys])KL; amide I:6-IV:C, I:9-II:C, II:6-III:C) | 64 ± 7% | – | 42% | 51 ± 6% | – | – | – | – | –
CCCCCCCCCCCCCCCCCC(=O)NCCCC[C@H](NC(=O)[C@H](CCCCNC(=O)[C@H](CC(C)C)NC(=O)[C@H](CCCNC(=N)N)NC(=O)[C@H](CCCCNC(=O)[C@H](CC(C)C)NC(=O)[C@H](CCCNC(=N)N)NC(=O)[C@H](CCCCNC(=O)[C@H](CC(C)C)NC(=O)[C@@H](N)CCCNC(=N)N)NC(=O)[C@H](CC(C)C)NC(=O)[C@@H](N)CCCNC(=N)N)NC(=O)[C@H](CC(C)C)NC(=O)[C@H](CCCNC(=N)N)NC(=O)[C@H](CCCCNC(=O)[C@H](CC(C)C)NC(=O)[C@@H](N)CCCNC(=N)N)NC(=O)[C@H](CC(C)C)NC(=O)[C@@H](N)CCCNC(=N)N)NC(=O)[C@H](CC(C)C)NC(=O)[C@H](CCCNC(=N)N)NC(=O)[C@H](CCCCNC(=O)[C@H](CC(C)C)NC(=O)[C@H](CCCNC(=N)N)NC(=O)[C@H](CCCCNC(=O)[C@H](CC(C)C)NC(=O)[C@@H](N)CCCNC(=N)N)NC(=O)[C@H](CC(C)C)NC(=O)[C@@H](N)CCCNC(=N)N)NC(=O)[C@H](CC(C)C)NC(=O)[C@H](CCCNC(=N)N)NC(=O)[C@H](CCCCNC(=O)[C@H](CC(C)C)NC(=O)[C@@H](N)CCCNC(=N)N)NC(=O)[C@H](CC(C)C)NC(=O)[C@@H](N)CCCNC(=N)N)C(N)=O [Z23] (I: H-RLK([Leu-Arg])RLKRLKK(Stearoyl)-NH2 / II: H-RLK([Leu-Arg])RLKRL / III: H-RLK([Leu-Arg])RL / IV: H-RLK([Leu-Arg])RL; amide I:6-IV:C, I:9-II:C, II:6-III:C) | 83 ± 2% | – | 46% | 95 ± 5% | 45% | 39.6% | 24.6% | 1.66% | 1.73%
CCCCCCCCCCCCCCCCCC(=O)NCCCC[C@@H](NC(=O)[C@@H](CCCCNC(=O)[C@@H](CC(C)C)NC(=O)[C@@H](CCCCN)NC(=O)[C@@H](CCCCNC(=O)[C@@H](CC(C)C)NC(=O)[C@@H](CCCCN)NC(=O)[C@@H](CCCCNC(=O)[C@@H](CC(C)C)NC(=O)[C@H](N)CCCCN)NC(=O)[C@@H](CC(C)C)NC(=O)[C@H](N)CCCCN)NC(=O)[C@@H](CC(C)C)NC(=O)[C@@H](CCCCN)NC(=O)[C@@H](CCCCNC(=O)[C@@H](CC(C)C)NC(=O)[C@H](N)CCCCN)NC(=O)[C@@H](CC(C)C)NC(=O)[C@H](N)CCCCN)NC(=O)[C@@H](CC(C)C)NC(=O)[C@@H](CCCCN)NC(=O)[C@@H](CCCCNC(=O)[C@@H](CC(C)C)NC(=O)[C@@H](CCCCN)NC(=O)[C@@H](CCCCNC(=O)[C@@H](CC(C)C)NC(=O)[C@H](N)CCCCN)NC(=O)[C@@H](CC(C)C)NC(=O)[C@H](N)CCCCN)NC(=O)[C@@H](CC(C)C)NC(=O)[C@@H](CCCCN)NC(=O)[C@@H](CCCCNC(=O)[C@@H](CC(C)C)NC(=O)[C@H](N)CCCCN)NC(=O)[C@@H](CC(C)C)NC(=O)[C@H](N)CCCCN)C(N)=O [Z26] (I: H-[dK][dL][dK]([dL-dK])[dK][dL][dK][dK][dL][dK][dK](Stearoyl)-NH2 / II: H-[dK][dL][dK]([dL-dK])[dK][dL][dK][dK][dL] / III: H-[dK][dL][dK]([dL-dK])[dK][dL] / IV: H-[dK][dL][dK]([dL-dK])[dK][dL]; amide I:6-IV:C, I:9-II:C, II:6-III:C) | 91.3 ± 0.2% | – | 51% | 91 ± 5% | – | – | – | – | –
CCCCCCCCCCCCCCCCCC(=O)NCCCC[C@@H](NC(=O)[C@@H](CCCCNC(=O)[C@@H](CC(C)C)NC(=O)[C@@H](CCCNC(=N)N)NC(=O)[C@@H](CCCCNC(=O)[C@@H](CC(C)C)NC(=O)[C@@H](CCCNC(=N)N)NC(=O)[C@@H](CCCCNC(=O)[C@@H](CC(C)C)NC(=O)[C@H](N)CCCNC(=N)N)NC(=O)[C@@H](CC(C)C)NC(=O)[C@H](N)CCCNC(=N)N)NC(=O)[C@@H](CC(C)C)NC(=O)[C@@H](CCCNC(=N)N)NC(=O)[C@@H](CCCCNC(=O)[C@@H](CC(C)C)NC(=O)[C@H](N)CCCNC(=N)N)NC(=O)[C@@H](CC(C)C)NC(=O)[C@H](N)CCCNC(=N)N)NC(=O)[C@@H](CC(C)C)NC(=O)[C@@H](CCCNC(=N)N)NC(=O)[C@@H](CCCCNC(=O)[C@@H](CC(C)C)NC(=O)[C@@H](CCCNC(=N)N)NC(=O)[C@@H](CCCCNC(=O)[C@@H](CC(C)C)NC(=O)[C@H](N)CCCNC(=N)N)NC(=O)[C@@H](CC(C)C)NC(=O)[C@H](N)CCCNC(=N)N)NC(=O)[C@@H](CC(C)C)NC(=O)[C@@H](CCCNC(=N)N)NC(=O)[C@@H](CCCCNC(=O)[C@@H](CC(C)C)NC(=O)[C@H](N)CCCNC(=N)N)NC(=O)[C@@H](CC(C)C)NC(=O)[C@H](N)CCCNC(=N)N)C(N)=O [Z34] (I: H-[dR][dL][dK]([dL-dR])[dR][dL][dK][dR][dL][dK][dK](Stearoyl)-NH2 / II: H-[dR][dL][dK]([dL-dR])[dR][dL][dK][dR][dL] / III: H-[dR][dL][dK]([dL-dR])[dR][dL] / IV: H-[dR][dL][dK]([dL-dR])[dR][dL]; amide I:6-IV:C, I:9-II:C, II:6-III:C) | – | – | 69% | 94 ± 6% | 100% | 97.7% | 95.4% | 91.8% | 101%
CCCCCCCCCCCCCCCCCC(=O)NCCCC[C@@H](NC(=O)[C@@H](CCCCNC(=O)[C@@H](CC(C)C)NC(=O)[C@@H](CC(C)C)NC(=O)[C@@H](CCCCNC(=O)[C@@H](CC(C)C)NC(=O)[C@@H](CC(C)C)NC(=O)[C@@H](CCCCNC(=O)[C@@H](CC(C)C)NC(=O)[C@H](N)CCCNC(=N)N)NC(=O)[C@@H](CC(C)C)NC(=O)[C@H](N)CCCNC(=N)N)NC(=O)[C@@H](CC(C)C)NC(=O)[C@@H](CC(C)C)NC(=O)[C@@H](CCCCNC(=O)[C@@H](CC(C)C)NC(=O)[C@H](N)CCCNC(=N)N)NC(=O)[C@@H](CC(C)C)NC(=O)[C@H](N)CCCNC(=N)N)NC(=O)[C@@H](CC(C)C)NC(=O)[C@@H](CC(C)C)NC(=O)[C@@H](CCCCNC(=O)[C@@H](CC(C)C)NC(=O)[C@@H](CC(C)C)NC(=O)[C@@H](CCCCNC(=O)[C@@H](CC(C)C)NC(=O)[C@H](N)CCCNC(=N)N)NC(=O)[C@@H](CC(C)C)NC(=O)[C@H](N)CCCNC(=N)N)NC(=O)[C@@H](CC(C)C)NC(=O)[C@@H](CC(C)C)NC(=O)[C@@H](CCCCNC(=O)[C@@H](CC(C)C)NC(=O)[C@H](N)CCCNC(=N)N)NC(=O)[C@@H](CC(C)C)NC(=O)[C@H](N)CCCNC(=N)N)C(N)=O [Z37] (I: H-[dR][dL][dK]([dL-dR])[dL][dL][dK][dL][dL][dK][dK](Stearoyl)-NH2 / II: H-[dR][dL][dK]([dL-dR])[dL][dL][dK][dL][dL] / III: H-[dR][dL][dK]([dL-dR])[dL][dL] / IV: H-[dR][dL][dK]([dL-dR])[dL][dL]; amide I:6-IV:C, I:9-II:C, II:6-III:C) | 103 ± 1% | – | – | 95 ± 5% | – | – | – | – | –
